Assay results reported in publication PMC8464850, “Sulfonium Ligands of the α7 nAChR” (Molecules, 2021).
Where two headings read alike, the source gives them in different places.

Assays:
[1] = biological target: T1, α7 nAChR (Homo sapiens, UniProt P36544); assay: α7 concentration-response on co-application with 10 µM PNU-120596; format: cell-based; details: peak currents, co-applied with 10 µM PNU-120596, Hill fit; for IMax (PNU Activation): approximation only
T1 construct: expressed in transfected cells; host or cells: Xenopus laevis oocytes (injected RNA)
Method: (§1) Compounds were co-applied at a concentration of 100 µM with 30 µM racemic TQS (Figure 3A). All compounds except S4, S5, and S8 gave large responses when co-applied with TQS, consistent with silent agonism of α7 (see Table S1 for ANOVA). Active compounds were also evaluated across a range of concentrations with the alternative PAM, PNU-120596 (Figure 3B). The curve-fit values for Imax (Table 1) should be taken only as approximation of the relative efficacies of the compounds, due to the large variability frequently observed in PNU-120596-potentiated responses, as evidenced by the large SEMs of the responses obtained with high concentrations.
(§2) Figure 3 Responses of α7 nAChR to sulfonium compounds coapplied with PAMs. (A) Potentiation of α7 responses with 30 µM racemic TQS. Shown are the average net-charge responses of seven or eight oocytes ± SEM. (B) Concentration-response studies of peak currents generated by compounds that gave positive responses with TQS, coapplied with 10 µM PNU-120596. Each point represents the average (±SEM) of at least four oocytes.
(§3) Experiments were conducted using OpusXpress 6000A (Molecular Devices, Union City, CA, USA). Both the voltage and current electrodes were filled with 3 M KCl. Oocytes were voltage-clamped at −60 mV at room temperature (24 °C). The oocytes were bath-perfused with Ringer’s solution (115 mM NaCl, 2.5 mM KCl, 1.8 mM CaCl2, 10 mM HEPES, and 1 μM atropine, pH 7.2) at 2 mL/min for α7 receptors, or 4 mL/min for heteromeric nAChR. To evaluate the effects of experimental compounds, responses were compared to control ACh-evoked responses, defined as the average of two initial applications of ACh made before test applications. ACh control concentrations were 60 µM for α7 receptors; 100 µM for α4(3)β2(2) and α3β4 receptors; 30 µM for α4β2α6β2β3 and muscle-type (αβ1εδ) receptors; and 10 µM for α4(3)β2(2) and α4(2)β2(2)α5 receptors.
(§4) Solutions were applied from 96-well plates via disposable tips. Drug applications were 12 s in duration, followed by 181 s washout periods for α7 receptors, or 6 s in duration followed by 301 s washout periods for heteromeric nAChR. The responses were calculated as both peak current amplitudes and net charge, as previously described. Data were collected at 50 Hz, filtered at 20 Hz for α7 receptors or filtered at 5 Hz for heteromeric nAChR, and analyzed by Clampfit (Molecular Devices, San Jose, CA, USA) and Excel (Microsoft, Redmond, WA, USA). Data were expressed as means ± SEM from at least four oocytes for each experiment and plotted with Kaleidagraph 4.5.2 (Abelbeck Software, Reading, PA, USA). Multi-cell averages were calculated for comparisons of complex responses. Averages of the normalized data were calculated for each of the 10,322 points in each of the 206.44 s traces (acquired at 50 Hz), as well as the standard errors for those averages.

[2] = biological target: T1, α7 nAChR; assay: Inhibition of α7 ACh-evoked responses; format: cell-based; details: for effect on 60 µM ACh response at 1 mM: compound 1 mM co-applied with 60 µM ACh; for inhibition at 100 µM: read-out: inhibition of responses to 60 µM ACh; for inhibition of responses to 60 µM ACh: compound co-applied at 100 µM
Method: Figure 4 Effects sulfonium compounds on α7 ACh-evoked net-charge responses. (A) Effects of the sulfonium compounds at 100 µM co-applied with 60 µM relative to responses to 60 µM ACh applied alone. Data are the averages (±SEM) from seven or eight cells under each condition. (B) Effects of select sulfonium compounds at 1 mM co-applied with 60 µM relative to responses to 60 µM ACh applied alone. Data are the averages (±SEM) from seven or eight cells under each condition. Statistical significance was determined by pairwise t-test with p values corrected for multiple comparisons; * p < 0.05, ** p < 0.001.
The sulfonium compounds that were active with TQS but produced little inhibition of ACh response at a concentration of 100 µM were tested as inhibitors of ACh response at a concentration of 1 mM (Figure 4B).
We tested S8 across a range of concentrations for its ability to inhibit 60 µM ACh responses (Figure 5A). Note that we use 60 µM as an ACh control because this concentration gives nearly maximal (93%) net-charge responses, with the time course of the responses roughly following the speed of solution exchange. […] We tested whether inhibition of α7 responses by S8 was surmountable by increasing ACh concentration, consistent with a competitive mechanism of inhibition. However, since α7 responses to concentrations of ACh greater than 60 µM occur more rapidly than solution exchange in the chamber, we first pre-applied 5 µM S8 prior to the co-application of 5 µM S8 with either 60 µM or 1 mM ACh (Figure 5B). The 60 µM net-charge responses were reduced to 28 ± 2% of controls (n = 8) and 60 µM peak currents to 21 ± 3 % controls. The 1 mM net-charge responses were reduced to 56 ± 6 % of those obtained without S8 co-application, although the S8 co-application increased the peak-current amplitudes compared to 60 µM controls from 1.78 ± 0.15 to 3.72 ± 0.81 (n = 8).
Figure 5 Inhibition of α7 ACh-evoked responses by S8. (A) Concentration-response studies of α7 net-charge responses to 60 µM ACh co-applied with increasing concentrations of S8. To confirm the stability of the ACh responses, applications of ACh plus S8 were alternated with applications of ACh alone. Data are the averages of eight cells (±SEM). See text for curve-fit values. (B) Effects of 5 µM S8 on responses to either 60 µM or 1 mM ACh. The traces shown across the top are the averaged raw data from seven cells, each normalized to the peak current of the first ACh control response shown. In order to assure that the S8 was present at 5 µM throughout the ACh-evoked responses, a 30 s pre-application was made of 5 µM S8 alone. The lower traces show averaged responses to 60 µM or 1 mM ACh alone or with the 5 µM S8 pre- and co-application. The details of the data are described in Methods.
as §3
Solutions were applied from 96-well plates via disposable tips. Drug applications were 12 s in duration, followed by 181 s washout periods for α7 receptors, or 6 s in duration followed by 301 s washout periods for heteromeric nAChR. […]

[3] = biological target: T1, α7 nAChR; assay: α7 responses on co-application with the type II PAM TQS (silent agonism); format: cell-based; details: for α7 functional classification (silent agonist / inactive): inactive alone, active with a PAM = silent agonist; for response when co-applied with TQS: 100 µM compound with 30 µM racemic TQS, net charge
Method: as §1, §2
The human nAChR clones were obtained from Jon Lindstrom (University of Pennsylvania, Philadelphia, PA, USA). Mouse muscle subunit clones were obtained from Jim Boulter (Salk Institute, La Jolla, CA, USA) and Paul Gardner (Dartmouth, Hanover, NH, USA). The human resistance-to-cholinesterase 3 (RIC3) clone was obtained from Millet Treinin (Hebrew University, Jerusalem, Israel) and co-injected with α7 to improve the level and speed of α7 receptor expression without affecting the pharmacological properties of the receptors. Subsequent to linearization and purification of the plasmid DNAs, RNAs were prepared using the mMessage mMachine in vitro RNA transcription kit (Ambion, Austin, TX, USA).
as §3, §4

[4] = biological target: T2, α3β4 nAChR (Homo sapiens, UniProt P30926+P32297); assay: Inhibition of α3β4 100 µM ACh-evoked peak currents; format: cell-based; details: co-application with 100 µM ACh, peak currents
T2 construct: expressed in transfected cells; host or cells: Xenopus laevis oocytes (injected RNA)
Method: (§5) Although none of the other sulfonium compounds activated neuronal heteromeric receptors, several of them produced inhibition of ACh-evoked responses. Shown in Figure 7A are concentration-response studies for the compounds that were active antagonists of α3β4 nAChR (Table 3). Some compounds were also tested as antagonists of α4β2 subtypes formed with concatamers (Figure 7B).
Figure 7 Inhibition of heteromeric nAChR by sulfonium compounds. (A) Inhibition of α3β4 100 µM ACh-evoked peak currents by the co-application of the sulfonium compounds. Data are the averaged of six to eight oocytes (±SEM). To confirm the stability of the ACh responses, applications of ACh plus the sulfonium compounds were alternated with applications of ACh alone. (B) Inhibition of ACh control peak-current responses of α4-containing nAChR formed with concatamers by 100 µM of the sulfonium compounds indicated. Data are the average of six to eight oocytes (±SEM).
as §3, §4

[5] = pKa by titration; format: physicochemical
Source text: One of the questions that emerges from the data is why aromatic sulfoniums as structurally similar as S5, S9, and S10 provide different responses when coapplied with TQS. Indeed, compounds S5 and S9 virtually overlap in their best docked poses (Supplementary Figure S1), but the α7 response of S9 and TQS was dramatically greater than that of S5 and TQS (p < 0.001, Table S1). The formation of cation–pi interactions is a key feature of the binding of nicotinic orthosteric ligands, and the electronic distribution of the cation can be compared qualitatively in a series of compounds using molecular electrostatic potentials (MEPs). Analysis of the MEPs shown in Figure 9 reveal that the substituents on the benzene ring can modulate the intensity of the positive charge on the sulfonium center. Compound S5, for instance, has two hydroxyl groups which are strongly electron donating, and in comparison to compound S9, which has only one hydroxyl group, the intensity of the positive charge is […]. Another factor may be that a lone pair on the ortho hydroxyl substituent is donating electron density through space to the neighboring sulfonium, redistributing its positive charge. Compound S10 also has an ortho hydroxyl group, but unlike compound S5, compound S10 also has a nitro group, which is a strong electron-withdrawing group that may offset the electron-donating impact of the ortho hydroxyl group. Inspection of the MEP surface shown in Figure 9 does indicate that, relative to S5, the S10 sulfonium bears greater positive electrostatic potential. Given that compounds such as para-nitrophenol are acidic, with a pKa of ~7 for the phenolic hydroxyl, we also considered whether the deprotonated forms of S5, S9, and S10 might be accessible at the pH of our experiments.
Thus, all three compounds have varying proportions of the phenolic OH in the phenoxide form at the pH of Ringers solution used in the experiments. […] Future work on analogs of these compounds may be focused on substituents that are non-ionizable, and thus preserve a positive molecular charge derived from the sulfonium center.

[6] = tested on: α4β2 subtypes formed with concatamers; assay: Inhibition of ACh control peak-current responses of α4-containing nAChR formed with concatamers; format: cell-based, human; details: 100 µM compound, Figure 7B
Method: as §5
Figure 7 Inhibition of heteromeric nAChR by sulfonium compounds. (A) Inhibition of α3β4 100 µM ACh-evoked peak currents by the co-application of the sulfonium compounds. Data are the averaged of six to eight oocytes (±SEM). […]
as §4, with “Drug applications were 12 s in duration, followed by 181 s washout periods for α7 receptors, or 6 s in duration followed by 301 s washout periods for heteromeric nAChR.” left out

[7] = 5 µM S8 pre-applied and co-applied

T1 sequence (P36544 23-502): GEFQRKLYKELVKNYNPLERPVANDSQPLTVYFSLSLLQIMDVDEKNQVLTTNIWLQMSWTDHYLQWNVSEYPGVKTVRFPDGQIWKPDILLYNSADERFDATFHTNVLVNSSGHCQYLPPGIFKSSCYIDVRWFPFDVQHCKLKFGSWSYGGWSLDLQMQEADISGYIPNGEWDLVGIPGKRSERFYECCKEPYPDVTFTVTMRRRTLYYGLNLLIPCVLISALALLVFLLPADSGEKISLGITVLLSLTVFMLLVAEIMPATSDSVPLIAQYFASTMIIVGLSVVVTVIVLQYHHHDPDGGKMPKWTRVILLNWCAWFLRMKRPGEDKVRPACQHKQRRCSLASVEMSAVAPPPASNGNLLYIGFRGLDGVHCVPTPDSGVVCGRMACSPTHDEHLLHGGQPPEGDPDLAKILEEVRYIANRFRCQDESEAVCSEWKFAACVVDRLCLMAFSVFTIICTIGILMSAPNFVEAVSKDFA
T2 sequence (P32297 32-505): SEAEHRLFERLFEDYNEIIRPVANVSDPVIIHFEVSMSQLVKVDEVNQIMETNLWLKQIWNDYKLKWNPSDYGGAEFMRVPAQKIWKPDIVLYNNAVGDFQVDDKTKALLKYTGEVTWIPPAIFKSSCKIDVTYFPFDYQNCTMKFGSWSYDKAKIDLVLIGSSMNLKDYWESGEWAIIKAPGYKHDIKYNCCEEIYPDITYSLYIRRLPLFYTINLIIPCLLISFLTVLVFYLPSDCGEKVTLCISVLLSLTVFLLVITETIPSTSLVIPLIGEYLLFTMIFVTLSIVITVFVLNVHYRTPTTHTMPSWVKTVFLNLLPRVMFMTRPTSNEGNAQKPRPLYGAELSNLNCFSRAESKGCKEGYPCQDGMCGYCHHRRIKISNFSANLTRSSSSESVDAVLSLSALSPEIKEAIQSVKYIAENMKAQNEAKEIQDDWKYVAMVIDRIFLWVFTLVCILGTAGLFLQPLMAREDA
T2 sequence (P30926 22-498): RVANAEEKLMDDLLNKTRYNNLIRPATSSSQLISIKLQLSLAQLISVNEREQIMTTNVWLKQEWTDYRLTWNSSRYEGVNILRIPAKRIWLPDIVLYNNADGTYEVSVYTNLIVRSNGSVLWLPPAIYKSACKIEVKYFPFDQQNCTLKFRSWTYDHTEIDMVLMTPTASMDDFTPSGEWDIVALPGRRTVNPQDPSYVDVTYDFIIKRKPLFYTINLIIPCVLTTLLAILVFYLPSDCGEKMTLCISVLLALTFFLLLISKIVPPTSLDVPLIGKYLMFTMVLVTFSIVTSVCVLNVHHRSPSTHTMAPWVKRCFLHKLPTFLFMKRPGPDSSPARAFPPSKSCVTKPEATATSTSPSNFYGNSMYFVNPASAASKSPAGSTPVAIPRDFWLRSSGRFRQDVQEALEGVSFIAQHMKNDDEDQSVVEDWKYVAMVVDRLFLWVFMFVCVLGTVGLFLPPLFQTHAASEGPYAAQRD

CCOC(=O)C[S+](C)C.[Br-] [Compound S2, (2-ethoxy-2-oxoethyl)dimethylsulfonium bromide]
IMax (PNU Activation) [1]: 16 ± 6
effect on 60 µM ACh response at 1 mM [2]: significant inhibition
inhibition at 100 µM [2]: ≤ 10%
α7 functional classification (silent agonist / inactive) [3]: efficacious silent agonist

COc1ccc([N+](=O)[O-])cc1C[S+](C)C.[Br-] [Compound S3, (2-methoxy-5-nitrobenzyl)dimethylsulfonium bromide]
IMax (PNU Activation) [1]: 22 ± 2.5
EC50 ([1]; read-out: EC50 (PNU Activation)): 263 ± 23 µM
inhibition at 100 µM [2]: ~50%
IC50 [4]: 18 ± 2.6 µM
α7 functional classification (silent agonist / inactive) [3]: silent agonist activity

OCC[S+](CCO)CCO.[Br-] [Compound S4, tris(2-hydroxyethyl)sulfonium bromide]
inhibition of responses to 60 µM ACh ([2]; net charge): failed to produce inhibition
response when co-applied with TQS [3]: did not generate responses
α7 functional classification (silent agonist / inactive) [3]: simply inactive

C[S+](C)c1ccc(O)cc1O [Compound S5, (2,4-dihydroxyphenyl)dimethylsulfonium trifluoromethanesulfonate]
inhibition of responses to 60 µM ACh ([2]; net charge): failed to produce inhibition
response when co-applied with TQS [3]: did not generate responses
α7 functional classification (silent agonist / inactive) [3]: simply inactive
pKa ([5]; phenolic hydroxyl, data not shown for S9, S10, read-out: pKa): ~6.3
pKa ([5]; read-out: pKa for the second hydroxyl): 9.2

C[S+](C)CC(=O)c1ccccc1.F[B-](F)(F)F [Compound S7, dimethyl(2-oxo-2-phenylethyl)sulfonium tetrafluoroborate]
IMax (PNU Activation) [1]: >1.1
α7 functional classification (silent agonist / inactive) [3]: silent agonist activity

C[S+](Cc1ccccc1)Cc1ccccc1 [Compound S8, dibenzyl(methyl)sulfonium tetrafluoroborate]
relative antagonist activity [6]: most active antagonist
60 µM ACh peak currents, % controls [2, 7]: 21 ± 3%
1 mM ACh net-charge responses, % of those obtained without S8 co-application [2, 7]: 56 ± 6%
remaining activity at 5 µM ([2]; 5 µM S8 pre-applied and co-applied, n = 8, read-out: 60 µM ACh net-charge responses, % of controls): 28 ± 2%
IC50 ([2]; net charge, co-application, eight cells, read-out: IC50 for inhibition of 60 µM ACh responses): 4.9 ± 2.7 µM
1 mM ACh peak-current amplitudes compared to 60 µM controls ([2]; with 5 µM S8 pre- and co-application, n = 8): 3.72 ± 0.81
IC50 [4]: 3.4 ± 0.4 µM

CC[S+](CC)CC [Compound S11, triethylsulfonium iodide]
IMax (PNU Activation) [1]: >1.8
effect on 60 µM ACh response at 1 mM [2]: not statistically significant
IC50 [4]: 108 ± 20 µM
α7 functional classification (silent agonist / inactive) [3]: silent agonist
